Test results as given in US6506738B1, “Benzimidazolone antiviral agents” (Bristol-Myers Squibb Company, priority 2000, dated 2003).

Assays:
[1] = system: respiratory syncytial virus Long strain; assay: Antiviral activity against respiratory syncytial virus in HEp-2 cells (MTT cell protection); format: cell-based
Procedure: The antiviral activity of these compounds against respiratory syncytial virus was determined in HEp-2 (ATCC CCL 23) cells that were seeded in 96 well microtiter plates at 1.5×10^4 cells/100 μL/well in DMEM (Dulbecco's Modified Eagle's Medium) supplemented with penicillin, streptomycin, glutamine, and 10% fetal bovine serum. The cells were incubated overnight at 37° C., the culture medium was removed, and cells were infected (100 μL volume in medium containing 2% fetal bovine serum) with respiratory syncytial virus Long strain at 5000 plaque forming units/mL. The compounds, 100 μL at appropriate dilution, were added to the cells 1 hour post infection. After incubation for 4 days at 37° C., the plates were stained with MTT solution (3-[4,5-dimethlythiazol-2-yl]-2,5-diphenyltetrazolium bromide) and incubated for 4 hours at 37° C. The media was aspirated from the cells and 100 μL/well of acidified isopropanol (per liter: 900 mL isopropanol, 100 mL Triton×100, and 4 mL conc. HCl) was added. Plates were incubated for 15 minutes at room temperature with shaking, and an optical density (OD 540) reading at 540 nanometer (nm) was obtained. The optical density reading is proportional to the number of viable cells. The increase in the number of viable cells reflects the protective, antiviral activity of the compound. […]

Structure (SMILES)	cell protection ([1]; at 2.5 μg/mL (corresponding to 10.2 μM), HEp-2 cells, RSV Long strain)	EC50 ([1]; human respiratory syncytial virus, HEp-2 cells infected with RSV Long strain, compound added 1 hour post infection, 4 days, read-out: EC50 (concentration that produces 50% cell protection))	melting point
NC(=O)c1ncn([C@@H]2O[C@H](CO)[C@@H](O)[C@H]2O)n1 [Ribavirin]	100%	3 µM	–
O=c1[nH]c2ccccc2n1Cc1nc2ccccc2n1CCn1cnnn1 [Compound 184]	–	–	> 200 °C
